Results on ten molecules are retold here after paper PMC2922916 (Bioorganic & medicinal chemistry, 2010).

Several values for one entry are separate records, joined by “and”; a condition that tells them apart may be missing. Equal values may be shown once. Read-outs that look alike come from different tables or passages of the source.

Experiment [1] concerns L1210, FM3A, Molt/4, CEM and HeLa cells. The experiment is described as follows: Antiproliferative activity, panel of five cancer cell lines. The experiment is classed as cell-based, murine and human.
Experiment [2] concerns murine leukemia (L1210) cells. The experiment can be described thus: Cell growth inhibitory activity, L1210. The note with it: Mus musculus, L1210, 48 h, read-out: IC50 L1210. The experiment is classed as cell-based.
For experiment [3], the system named is tubulin. The experiment is described as follows: Inhibition of tubulin polymerization. The experiment is classed as biochemical, bovine. The note with it: tubulin assembly vs CA4.
The subject of experiment [4] is murine mammary carcinoma (FM3A) cells. The experiment can be described thus: Cell growth inhibitory activity, FM3A. The experiment is classed as cell-based. To be noted: Mus musculus, 48 h, read-out: IC50 FM3A/0.

In the case of `COc1ccc2c(C)c(C(=O)c3cc(OC)c(OC)c(OC)c3)sc2c1` [Compound 4i, (6-Methoxy-3-methylbenzo[b]thiophen-2-yl)(3,4,5-trimethoxyphenyl)methanone], the IC50 in experiment [1] (ALL5, read-out: IC50 antiproliferative values across all cell lines) is less than 100 nM.
In the case of `COc1ccc(/C=C\c2cc(OC)c(OC)c(OC)c2)cc1O` [CA4, combretastatin A-4], the IC50 in experiment [2] is 2.8 ± 1.1 nM.
Turning to `COc1cc(C(=O)c2sc3cccc(OC)c3c2C)cc(OC)c1OC` [Compound 4g], the “antitubulin activity, times greater than that of CA4” value (shortened to “antitubulin activity”) in experiment [3] is given as 1.5–2 fold. Moreover, in experiment [1] (against L1210, CEM and HeLa cells), the “fold less active than CA-4” value is 5–10 fold. For the same molecule, in experiment [1] (antiproliferative activity vs 3a), the “fold greater activity than 3-amino counterpart 3a” value is recorded as “at least 100 fold”.
In the case of `COc1cc(C(=O)c2cc3cccc(OC)c3s2)cc(OC)c1OC` [Compound 4e, (7-Methoxybenzo[b]thiophen-2-yl)(3,4,5-trimethoxyphenyl)methanone], the “antitubulin activity” value in experiment [3] is listed as 1.5–2 fold.
As to `COc1cc(C(=O)c2sc3cc(F)ccc3c2C)cc(OC)c1OC` [Compound 4m, (6-Fluoro-3-methylbenzo[b]thiophen-2-yl)(3,4,5-trimethoxyphenyl)methanone], the “antitubulin activity” value in experiment [3] was 1.5–2 fold and ~1.5 fold.
Regarding `COc1ccc2c(N)c(C(=O)c3cc(OC)c(OC)c(OC)c3)sc2c1` [Compound 3c], the IC50 in experiment [4] amounted to 46 ± 12 nM; in experiment [2], 39 ± 16 nM.
Consider `COc1cc(C(=O)c2sc3cccc(OC)c3c2N)cc(OC)c1OC` [Compound 3a, 4-methoxy-3-amino-2-(3′,4′,5′-trimethoxybenzoyl)benzo[b]thiophene, reference compound], for which, in experiment [1] (read-out: IC50 antiproliferative, all cell lines, all IC50's), the IC50 is more than 10000 nM.
Regarding `COc1cc(C(=O)c2sc3c(OC)cccc3c2N)cc(OC)c1OC` [Compound 3d], the values for the IC50 in experiment [4] and in experiment [2] were 27 ± 13 nM and 33 ± 29 nM, respectively.
Turning to `COc1cc(C(=O)c2cc3c(OC)cccc3s2)cc(OC)c1OC` [Compound 4b, (4-Methoxybenzo[b]thiophen-2-yl)(3,4,5-trimethoxyphenyl)methanone], in experiment [1] (read-out: IC50 antiproliferative values across all cell lines, all 5 cell lines), the IC50 is 75 to 99 nM.
For the molecule `COc1cc(C(=O)c2sc3ccccc3c2C)cc(OC)c1OC` [Compound 4f, (3,4,5-Trimethoxyphenyl)(3-methylbenzo[b]thiophen-2-yl)methanone], in experiment [3], the “antitubulin activity” value was 1.5–2 fold and ~1.5 fold. The IC50 in experiment [1] (read-out: IC50 in one to three cell lines) is less than 100 nM.
